Test results reported in PubChem BioAssay AID248 (DTP/NCI, 2004).
“And” between values parts separate entries of the source, which are not always exact repeats. Equal entries are not always repeated. Toxic doses and inconclusive results are not listed.

Tested on: L1210 leukemia ip in BDF1 mice, survival T/C
Test: NCI In Vivo Anticancer Drug Screen. Data for tumor model L1210 Leukemia (intraperitoneal) in B6D2F1 (BDF1) mice
Conditions: endpoint: mean survival time, higher = longer survival
Outline: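 Read-out is survival time, reported as the treated-group measurement over the vehicle-control measurement.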

[1] = dose: 25.0 mg/kg/injection, schedule: Q01DX009 (ip), vehicle: saline
[2] = dose: 100.0 mg/kg/injection, schedule: Q01DX009 (ip), vehicle: saline
[3] = dose: 100.0 mg/kg/injection, schedule: Q04DX003 (ip), vehicle: saline
[4] = dose: 200.0 mg/kg/injection, schedule: Q01DX009 (ip), vehicle: saline
[5] = dose: 200.0 mg/kg/injection, schedule: Q04DX003 (ip), vehicle: saline
[6] = dose: 400.0 mg/kg/injection, schedule: Q01DX009 (ip), vehicle: saline
[7] = dose: 400.0 mg/kg/injection, schedule: Q04DX003 (ip), vehicle: saline
[8] = dose: 100.0 mg/kg/injection, schedule: Q01DX009 (ip), vehicle: saline with Tween-80
[9] = dose: 200.0 mg/kg/injection, schedule: Q01DX009 (ip), vehicle: saline with Tween-80
[10] = dose: 100.0 mg/kg/injection, schedule: Q04DX003 (ip), vehicle: Klucel (hydroxypropylcellulose) (HPC)
[11] = dose: 200.0 mg/kg/injection, schedule: Q04DX003 (ip), vehicle: Klucel (hydroxypropylcellulose) (HPC)
[12] = dose: 400.0 mg/kg/injection, schedule: Q01DX009 (ip), vehicle: saline with Tween-80
[13] = dose: 400.0 mg/kg/injection, schedule: Q04DX003 (ip), vehicle: Klucel (hydroxypropylcellulose) (HPC)
[14] = dose: 100.0 mg/kg/injection, schedule: Q01DX009 (ip), vehicle: Klucel (hydroxypropylcellulose) (HPC)
[15] = dose: 400.0 mg/kg/injection, schedule: Q01DX009 (ip), vehicle: Klucel (hydroxypropylcellulose) (HPC)
[16] = dose: 100.0 mg/kg/injection, schedule: Q01DX001 (ip), vehicle: saline with Tween-80
[17] = dose: 200.0 mg/kg/injection, schedule: Q01DX001 (ip), vehicle: saline with Tween-80
[18] = dose: 400.0 mg/kg/injection, schedule: Q01DX001 (ip), vehicle: saline with Tween-80

`CN(C)CCOC(=O)COc1ccc(Cl)cc1` was tested, and the T/C [1] was 96 % of control, the T/C (dose: 25.0 mg/kg/injection, schedule: Q04DX003 (ip), vehicle: saline) was 93 % of control and the T/C (dose: 50.0 mg/kg/injection, schedule: Q01DX009 (ip), vehicle: saline) was 100 % of control. For the same compound, the T/C (dose: 50.0 mg/kg/injection, schedule: Q04DX003 (ip), vehicle: saline) was 98 % of control, the T/C [2] was 97 % of control and the T/C [3] was 90 % of control. The T/C [4] was 96 % of control, the T/C [5] was 114 % of control and the T/C [6] was 96 % of control. For the same compound, the T/C [7] was 101 % of control.

In the case of `COC(=O)C(C(=O)OC)C(c1ccccc1)C(Br)(C(=O)OC)C(=O)OC` (configuration not stated), the T/C [8] is reported as 102 % of control and the T/C [9] is reported as 94 % of control.

With `Cc1cc(NC(=O)N(CCCl)N=O)c(C)cc1NC(=O)c1ccccc1` the T/C (dose: 4.2 mg/kg/injection, schedule: Q01DX009 (ip), vehicle: carboxymethylcellulose (CMC)) was 124 % of control, the T/C (dose: 9.6 mg/kg/injection, schedule: Q01DX001 (ip), vehicle: carboxymethylcellulose (CMC)) was 111 % of control and the T/C (dose: 14.0 mg/kg/injection, schedule: Q01DX009 (ip), vehicle: other) was 186 % of control. The T/C (dose: 22.0 mg/kg/injection, schedule: Q01DX009 (ip), vehicle: other) was 196 % of control, the T/C (dose: 33.0 mg/kg/injection, schedule: Q01DX009 (ip), vehicle: other) was 213 % of control and the T/C (dose: 50.0 mg/kg/injection, schedule: Q01DX009 (ip), vehicle: carboxymethylcellulose (CMC)) was 180 % of control. For the same compound, the T/C (dose: 58.0 mg/kg/injection, schedule: Q01DX009 (ip), vehicle: carboxymethylcellulose (CMC)) was 175 % of control, the T/C (dose: 75.0 mg/kg/injection, schedule: Q01DX001 (ip), vehicle: carboxymethylcellulose (CMC)) was 159 % of control and the T/C (dose: 75.0 mg/kg/injection, schedule: Q01DX009 (ip), vehicle: carboxymethylcellulose (CMC)) was 193 % of control. For the same compound, the T/C (dose: 88.0 mg/kg/injection, schedule: Q01DX009 (ip), vehicle: carboxymethylcellulose (CMC)) was 190 % of control, the T/C (dose: 120.0 mg/kg/injection, schedule: Q01DX001 (ip), vehicle: carboxymethylcellulose (CMC)) was 150 % of control and the T/C (dose: 132.0 mg/kg/injection, schedule: Q01DX009 (ip), vehicle: carboxymethylcellulose (CMC)) was 228 % of control. For the same compound, the T/C (dose: 177.0 mg/kg/injection, schedule: Q01DX001 (ip), vehicle: carboxymethylcellulose (CMC)) was 153 % of control, the T/C (dose: 200.0 mg/kg/injection, schedule: Q01DX009 (ip), vehicle: carboxymethylcellulose (CMC)) was 163 % of control and the T/C (dose: 266.0 mg/kg/injection, schedule: Q01DX001 (ip), vehicle: carboxymethylcellulose (CMC)) was 162 % of control. For the same compound, the T/C (dose: 266.0 mg/kg/injection, schedule: Q01DX001 (ip), vehicle: other) was 91 % of control, the T/C (dose: 400.0 mg/kg/injection, schedule: Q01DX001 (ip), vehicle: carboxymethylcellulose (CMC)) was 245 % of control and the T/C (dose: 600.0 mg/kg/injection, schedule: Q01DX001 (ip), vehicle: carboxymethylcellulose (CMC)) was 219 % of control.

In the case of `O=C1Nc2ccccc2Oc2ccccc21`, the T/C [2] is reported as 105 % of control, the T/C [3] is reported as 92 % of control and the T/C [4] is reported as 93 % of control. The T/C [5] was 91 % of control, the T/C [6] was 98 % of control and the T/C [7] was 92 % of control.

For `CC(C)(C)N1C(=O)N(C(C)(C)C)C1=O`, the T/C [8] was 91 % of control, the T/C [10] was 113 % of control and the T/C [9] was 94 % of control. For the same compound, the T/C [11] was 102 % of control, the T/C [12] was 93 % of control and the T/C [13] was 109 % of control.

For `CCOC(=O)C(OC(=O)c1ccccc1)C(OC(=O)c1ccccc1)C(=O)OCC` (configuration not stated), the T/C (dose: 100.0 mg/kg/injection, schedule: Q01DX001 (ip), vehicle: saline) was 102 % of control, the T/C (dose: 200.0 mg/kg/injection, schedule: Q01DX001 (ip), vehicle: saline) was 100 % of control and the T/C (dose: 400.0 mg/kg/injection, schedule: Q01DX001 (ip), vehicle: saline) was 93 % of control.

For `COc1cc(N(C)C)ccc1C=O`, the T/C (dose: 50.0 mg/kg/injection, schedule: Q01DX009 (ip), vehicle: Klucel (hydroxypropylcellulose) (HPC)) was 93 % of control, the T/C [14] was 101 % of control and the T/C [10] was 100 % of control. The T/C (dose: 200.0 mg/kg/injection, schedule: Q01DX009 (ip), vehicle: Klucel (hydroxypropylcellulose) (HPC)) was 105 % of control, the T/C [11] was 101 % of control and the T/C [15] was 105 % of control. For the same compound, the T/C [13] was 97 % of control.

For `CC1(C)OC2OC(C(O)CO)C(O)C2O1` (configuration not stated) (tested in a mixture with another compound), the T/C (dose: 12.5 mg/kg/injection, schedule: Q04DX002 (ip), vehicle: saline) was 100 % of control, the T/C (dose: 25.0 mg/kg/injection, schedule: Q04DX002 (ip), vehicle: saline) was 95 % of control and the T/C (dose: 50.0 mg/kg/injection, schedule: Q04DX002 (ip), vehicle: saline) was 95 % of control.

`CN(C)c1ccc2c(c1)N=[N+]([O-])c1cc(N(C)C)ccc1C2` was tested, and the T/C (dose: 100.0 mg/kg/injection, schedule: Q01DX001 (ip), vehicle: Klucel (hydroxypropylcellulose) (HPC)) was 97 % of control, the T/C (dose: 200.0 mg/kg/injection, schedule: Q01DX001 (ip), vehicle: Klucel (hydroxypropylcellulose) (HPC)) was 97 % of control and the T/C (dose: 400.0 mg/kg/injection, schedule: Q01DX001 (ip), vehicle: Klucel (hydroxypropylcellulose) (HPC)) was 89 % of control.

With `CCOC(=O)/C=C(\C)Nc1ncc(Br)cc1Br` the T/C [16] was 92 % of control, the T/C [17] was 96 % of control and the T/C [18] was 89 % of control.

`O=c1[nH]c(=S)c2c3c(sc2[nH]1)CCCC3` was tested, and the T/C (dose: 100.0 mg/kg/injection, schedule: Q04DX003 (ip), vehicle: saline sonified) was 95 % of control, the T/C (dose: 200.0 mg/kg/injection, schedule: Q04DX003 (ip), vehicle: saline sonified) was 97 % of control and the T/C (dose: 400.0 mg/kg/injection, schedule: Q04DX003 (ip), vehicle: saline sonified) was 93 % of control.

`N#Cc1nc2c3ccccc3c(N=NC(N)=S)c-2[nH]c1C#N` was tested, and the T/C (dose: 50.0 mg/kg/injection, schedule: Q04DX002 (ip), vehicle: Klucel (hydroxypropylcellulose) (HPC)) was 87 % of control, the T/C (dose: 100.0 mg/kg/injection, schedule: Q04DX002 (ip), vehicle: Klucel (hydroxypropylcellulose) (HPC)) was 91 % of control and the T/C (dose: 200.0 mg/kg/injection, schedule: Q04DX002 (ip), vehicle: Klucel (hydroxypropylcellulose) (HPC)) was 91 % of control.

`O=S(=O)(O)CCN1CCOCC1` was tested, and the T/C [14] was 100 % of control and the T/C [15] was 100 % of control.

`C=CCNC(=O)Oc1cccc(NC(=O)CC)c1` was tested, and the T/C [8] was 94 % of control, the T/C [9] was 91 % of control and the T/C [12] was 87 % of control.

In the case of `Cc1ccc(Cl)cc1NC(=O)NCc1cccnc1`, the T/C [16] is reported as 93 % of control, the T/C [8] is reported as 103 % of control and 91 % of control and the T/C (dose: 100.0 mg/kg/injection, schedule: Q04DX002 (ip), vehicle: saline with Tween-80) is reported as 106 % of control and 88 % of control. For the same compound, the T/C (dose: 100.0 mg/kg/injection, schedule: Q04DX003 (ip), vehicle: saline with Tween-80) was 107 % of control, the T/C [17] was 90 % of control and the T/C [9] was 104 % of control and 92 % of control. The T/C (dose: 200.0 mg/kg/injection, schedule: Q04DX002 (ip), vehicle: saline with Tween-80) was 95 % of control and 89 % of control, the T/C (dose: 200.0 mg/kg/injection, schedule: Q04DX003 (ip), vehicle: saline with Tween-80) was 100 % of control and the T/C [18] was 90 % of control. The T/C [12] was 96 % of control and 113 % of control, the T/C (dose: 400.0 mg/kg/injection, schedule: Q04DX002 (ip), vehicle: saline with Tween-80) was 95 % of control and 91 % of control and the T/C (dose: 400.0 mg/kg/injection, schedule: Q04DX003 (ip), vehicle: saline with Tween-80) was 103 % of control.

`O=C(Oc1ccccc1)C(Cl)(Cl)Cl` was tested, and the T/C (dose: 6.25 mg/kg/injection, schedule: Q01DX009 (ip), vehicle: saline) was 95 % of control, the T/C (dose: 12.5 mg/kg/injection, schedule: Q01DX009 (ip), vehicle: saline) was 92 % of control and the T/C [1] was 89 % of control. The T/C (dose: 100.0 mg/kg/injection, schedule: Q01DX001 (ip), vehicle: acetone) was 98 % of control, the T/C (dose: 100.0 mg/kg/injection, schedule: Q04DX003 (ip), vehicle: acetone) was 95 % of control and the T/C (dose: 200.0 mg/kg/injection, schedule: Q01DX001 (ip), vehicle: acetone) was 90 % of control. The T/C (dose: 200.0 mg/kg/injection, schedule: Q04DX003 (ip), vehicle: acetone) was 98 % of control and the T/C (dose: 400.0 mg/kg/injection, schedule: Q01DX001 (ip), vehicle: acetone) was 100 % of control.
